Assay results from patent publication US8815565B2, “Method for culturing mycoplasma contamination-free cells and method for removing mycoplasma contamination of cells” (Cellsafe Co., Ltd., priority 2010, dated 2014).
*1 amine or outer side, *2 acyl side, *3 side chain or, on linkers, in order; H or OH if unused. Where a SMILES comes first, the peptide text is derived from it. Bridges are numbered along the chain shown (N, C = ends). [ ]: non-standard residue; d: D form. X1 = CC(C)CCCCCCCCC[C@H](CC(=O)[*:1])O[*:2]

Tests used:
[1] = system: Mycoplasma hyorhinis (ATCC17981s); experiment: Inhibition of Mycoplasma hyorhinis cultured in PPLO medium, INT colour change; type: cell-based; conditions: final concentration at which INT colour change did not occur, 24 hours + 4 hours at 37° C.; for IC50: Mycoplasma, read-out: IC50
Protocol: In order to evaluate the effects of the extract and amphidinol derivatives prepared in Example 1 on mycoplasma, Mycoplasma hyorhinis (ATCC17981s) was cultured in a PPLO medium (pleuropneumonia-like organism basal medium, Difco Laboratories, Detroit, USA) supplemented with a fetal calf serum and a yeast extract, according to the method disclosed by Hayflick (Hayflick, 1965, Tex. Rep. Bio. Med. 23, 285-303). That is, 100 μl of the medium was placed on each well of a 96-well plate, and a sample (that is, the extract and amphidinol derivatives prepared in Example 1) was added to each well, such that each sample was diluted from 2 times (i.e., 2× diluted) to 12 times (i.e., 12× diluted), the starting concentration being 1 mg/ml. Mycoplasma was cultured in a PPLO medium (pleuropneumonia-like organism basal medium, Difco Laboratories, Detroit, USA) supplemented with a fetal calf serum and a yeast extract, at a temperature of 37° C. for 48 hours. The resulting culture medium was diluted with the PPLO medium at a ratio of 1:10. 100 μl of the diluted culture medium was added to each well of the 96-well plate, so that the total amount of each well was 200 μl. After culturing at a temperature of 37° C. for 24 hours, 40 μl of 0.2 mg/ml INT (p-iodonitrotetrazolium) was added thereto and culturing was further performed for 4 hours. If the medium turns pink following the culturing, the color change means that metabolism of mycoplasma actively occurs. Also, if mycoplasma is suppressed by the sample, the medium turned pink less.

[2] = system: HepG2 cell line contaminated with mycoplasma; experiment: Co-treatment with amphidinol 3 (AM3) and cyclic lipopeptide/antibiotic, PCR with mycoplasma diagnosis kit; type: cell-based
Protocol: The cell lines NIH3T3, HepG2, and Raw 264.7, which were confirmed to be contaminated with mycoplasma, were each inoculated at a concentration of 1×10^6 cells on a T-75 culture flask (NUNC, Cat. No. 156367). DMEM (GIBCO BRL, Cat. No. 12800-058) containing 10% or less of serum (GIBCO BRL, Cat. […] After culturing for 3 days, the obtained cells were treated with Trypsin-EDTA to obtain a cell solution. The resulting cells (1×10^6 cells) which was treated with amphidinol 3 (AM3) were inoculated. DMEM (GIBCO BRL, Cat. No. 12800-058) containing 10% or less of serum (GIBCO BRL, Cat. […] After culturing for 3 days, the cells were harvested. PCR was performed thereon with a mycoplasma diagnosis kit (Promokine, Germany; Cellsafe Co., Ltd., Korea) according to the enclosed protocol. The resulting PCR products were electrophoresed on a 1% agarose gel to measure the mycoplasma contamination.

Compound	IC50 [1]	minimum inhibitory concentration (no INT colour change) [1]	other results
C=C/C=C/CC/C=C/C=C/C=C/CC/C=C/C(O)C(O)C1OC(C(O)C(O)C(=C)CCC(O)C2CC(O)C(O)C(C(O)C(O)/C=C(\C)CCC(O)CC(O)C(O)C(C)CC(O)C(O)C(C)CCC(O)CCCC(O)CCCC(O)CCCC(O)/C=C/CC(CO)OS(=O)(=O)[O-])O2)CC(O)C1O.[Na+] (stereo not drawn) [AM1, amphidinol 1]	1 to 20 µg/mL		
C=CCC/C=C/C=C/C=C/CC/C=C/C(O)C(O)C1OC(C(O)C(O)C(=C)CCC(O)C2CC(O)C(O)C(C(O)C(O)/C=C(\C)CCC(O)CC(O)C(O)C(C)CC(O)C(O)CCCC(O)CCCC(O)CCCC(O)/C=C/CC(O)/C=C/CC(O)CO)O2)CC(O)C1O (stereo not drawn) [AM6, amphidinol 6]		+++ (+++: 1~20 μg/ml)	
C=C/C=C/CC/C=C/C=C/C=C/CC/C=C/C(O)C(O)C1OC(C(O)C(O)C(=C)CCC(O)C2CC(O)C(O)C(C(O)C(O)/C=C(\C)CCC(O)CC(O)C(O)C(C)C(O)CCCC(O)CCCC(O)CCCC(O)/C=C/CC(O)/C=C/CC(O)CO)O2)CC(O)C1O (stereo not drawn) [AM9, amphidinol 9]	1 to 20 µg/mL		
C=CCC/C=C/C=C/C=C/CC/C=C/C(O)C(O)C1OC(C(O)C(O)C(=C)CCC(O)C2CC(O)C(O)C(C(O)C(O)/C=C(\C)CCC(O)CC(O)C(O)C(C)CC(O)C(O)CCCC(O)CCCC(O)/C=C/CC(O)/C=C/CC(O)CO)O2)CC(O)C1O (stereo not drawn) [AM10]	10 to 100 µg/mL		
CC(C)CCCCCCCCC[C@@H]1CC(=O)N[C@@H](CCC(=O)O)C(=O)N[C@@H](CC(C)C)C(=O)N[C@H](CC(C)C)C(=O)N[C@@H](C(C)C)C(=O)N[C@@H](CC(=O)O)C(=O)N[C@H](CC(C)C)C(=O)N[C@@H](CC(C)C)C(=O)O1 [surfactin] (EL[dL]VD[dL]L; linker N-C via X1)			mycoplasma contamination ([2]; used alone, surfactin 10 or 20 μM, ciprofloxacin 1 or 5 μg/ml, rifampicin 0.5 or 1 μg/ml): mycoplasma contamination remained; mycoplasma contamination ([2]; used together with amphidinol 3 (AM3) 5 and 10 μg/ml): completely removed
amphidinol 2 [AM2]		+++ (+++: 1~20 μg/ml)	
amphidinol 5 [AM5]		+++ (+++: 1~20 μg/ml)	
amphidinol 7 [AM7]		+++ (+++: 1~20 μg/ml)	
